These results are taken from patent US4749710A, “Immunosuppressive agents” (priority 1985, dated 1988).

For data set [1], the system named is murine cytotoxic T-lymphocyte responses. In words: cells. Type of data set: cell-based. Conditions: for CTL activity (% specific ^51 Cr release): 90:1 effector to target. The source says:
Immunosuppressive Activity of Vitamin D compounds on cytotoxic T lymphocyte Responses-General Test Description
Cytotoxic thymus-derived lymphocytes (CTL) constitute an important aspect of immune function and, as a result, play a key role in the rejection of grafted cells, tissues and organs. It is, therefore, essential to suppress CTL generation in a clinical situation in which CTL function is antithetical to the desired outcome as, for example, in transplantation. Cytotoxic T-lymphocytes have been studied for several years by many investigators and methods to evaluate CTL responses in vitro are well established.
As described below, CTL responses as affected by Vitamin D derivatives, were studied in vitro using cells from lab animals and human volunteers. Cytotoxic T-lymphocytes were generated from responder lymphoid cells in tissue culture medium during an incubation period of 6 days by exposure to foreign stimulator cells, i.e. from a genetically disparate source. A portion of the resultant effector cells were CTL capable of killing fresh cells related to the stimulator cells employed in the 6 day culture. To detect killing of cells by CTL, fresh target cells were incubated in excess ^51 chromium (as sodium chromate) until they were extensively labelled. Since target cells will retain the internalized radioisotope as long as they are viable but release the label when they are killed, CTL activity was assessed by quantitating the chromium released from target cells after a 4 or 18 hour incubation with CTL. Immunosuppression produced by Vitamin D derivatives was gauged as the ability to inhibit CTL responses during the initial incubation period relative to control cultures to which no Vitamin D derivative was added.
Female BALB/c By and C57BL/6 mice were obtained from Jackson Laboratories and were used between 8 and 10 weeks of age. Mice were given food and water ad libitum and were kept in a 12 hour light and 12 hour dark cycle.
For murine cultures, minimal essential medium with Hank's salts was supplemented to 1 millimolar with sodium pyruvate, to 0.1 millimolar with nonessential amino acids, to 2 millimolar with 1-glutamine, to 10% (v/v) with heat-inactivated fetal bovine serum, to 50 micrograms per ml with gentamicin, and to 1000 milligrams per liter with sodium bicarbonate and was used as tissue culture medium.
Stock solutions of Vitamin D derivatives were made in argon-saturated ethanol at a final concentration of 1×10^-2 molar, were covered with argon before sealing and were stored at -20° C. in the dark. Reduced lighting conditions were always employed when working with compounds. Compounds were diluted in tissue culture medium to 1×10^-4 molar and all subsequent dilutions were done in tissue culture medium containing 1% v/v ethanol. The final dilution into culture vessels was 1:10 thus keeping the vehicle concentration constant at 0.1% while varying the concentration of compound as tabulated in the results. For purposes of control, mixed leukocyte cultures were incubated in medium only (medium control) or in medium containing a final concentration of 0.1% ethanol (vehicle control).
Murine cytotoxic T-lymphocytes were generated in mixed leukocyte cultures by known methods. Specifically, single cell suspensions were prepared from spleens by gentle disruption in balanced salt solution (Hanks' balanced salt solution supplemented to 10%, v/v, with fetal bovine serum). After sedimentation on ice to remove particulate debris, cell suspensions were centrifuged at 400xg and were resuspended in fresh balanced salt solution. Cells to be used as stimulator cells were precluded from proliferating or generating cytotoxic T-lymphocytes by exposure to 1000 rads of gamma irradiation using a ^137 cesium source. […]

Data set [2] relates to human cytotoxic T-lymphocyte responses. In words: Inhibition of human CTL responses (mixed leukocyte-tumor cultures, HT-144 melanoma, ^51 Cr release). It is filed as cell-based. Conditions: for inhibition at 1 µM / inhibition at 0.1 µM: Homo sapiens, T-lymphocyte, read-out: Inhibition of CTL activity (%). As to the method: Human cells for the tests described below were taken from four donors designated I, II, III, and IV in the tables below.
Stock solutions of Vitamin D derivatives were prepared as they were prepared above in the murine tests.
Human cytotoxic T-lymphocytes were generated in mixed leukocyte-tumor cultures by known methods. Specifically, blood from normal volunteer donors was drawn into heparinized syringes, diluted 1:1 with calcium-magnesium free Hanks' balanced salt solution (Ca-Mg free HBSS), and layered over lymphocyte separation medium (Litton Bionetics, Kensington, MD). After centrifugation at 500xg for 20-30 min at room temperature, peripheral blood mononuclear cells were harvested from the interface. The peripheral blood mononuclear leukocytes were centrifuged and resuspended in Ca-Mg free HBSS and were subsequently separated from platelets by centrifugation at 500xg through a solution of 20% sucrose and 1% human AB serum in Ca-Mg free HBSS. The cells were washed once and finally resuspended in tissue culture medium. […] Cells to be used as stimulator cells in mixed leukocyte-tumor cultures were irradiated with 10,000 rads of gamma irradiation to preclude proliferation in culture. Mixed leukocyte-tumor cell cultures were established in 16 mm tissue culture wells at a final volume of 1.5 ml per well containing 2×10^6 peripheral blood mononuclear leukocytes and 5×10^4 irradiation-inactivated stimulator cells. In order to prevent the generation of nonspecific cytotoxic cells in these cultures, hydrocortisone sodium succinate was added to each culture at a final concentration of 1×10^-5 M. Mixed leukocyte-tumor cultures were incubated for 6 days in a humidified atmosphere of 5% CO2 in air.
Labelled target cells were washed free of unbound isotope by 3 serial washes in tissue culture medium and were finally resuspended at a concentration of 5×10^4 cells per ml.
Assays of human cytotoxic T-lymphocytes were done by known methods. Specifically, one-tenth ml aliquots of ^51 Cr-labelled target cell suspension were added to "half area" microtest plates and were incubated at 37° C. for 18 hours in a humidified atmosphere of 5% CO2 in air to permit the cells to adhere and spread on the floor of each well. Culture medium was then aspirated from each well and was replaced with 0.1 ml of tissue culture medium containing cells harvested from mixed leukocyte-tumor cultures which had been processed as described for murine mixed leukocute cultures, above. Control wells for measurement of spontaneous ^51 Cr release received medium without effector cells and wells for measurement of maximal releasable ^51 Cr received 0.1 ml of 2% sodium dodecyl sulfate in distilled water. After overnight incubation at 37° in a humidified atmosphere of 5% CO2 in air, 0.05 ml of cell-free supernatant was withdrawn from each well and the amount of released ^51 Cr was quantitated using a gamma spectrometer. The percentage of specific ^51 Cr release (CTL activity) and the percent inhibition of CTL activity were calculated with the same formulas used above for the murine CTL assay.
Tests conducted on human cytotoxic T-lymphocyte responses are reported as the mean±standard error of the mean from triplicate ^51 Cr release determinations on pooled cells from duplicate control or test cultures.

The mark [3] stands for this setting: Test 1 (hexafluoro compounds), donor I, 1 × 10^-6 molar, 0.1% ethanol, effector to target 8:1.
[4] abbreviates: Test 1 (hexafluoro compounds), donor I, 1 × 10^-7 molar, 0.1% ethanol, effector to target 8:1.

Where two headings read alike, the source gives them in different places.

In the case of `C=C1/C(=C\C=C2/CCC[C@]3(C)[C@@H]([C@H](C)CC4CC(C)(O)C(=O)O4)CC[C@@H]23)C[C@@H](O)C[C@@H]1O` (stereo partly drawn) [1α,25-(OH)2 --D3-(26,23)-lactone, 1α,25-Dihydroxycholecalciferol-26,23-lactone], in data set [1] (Mus musculus, T-lymphocyte, Table I, 1 × 10^-5 molar, vs vehicle control, read-out: Inhibition of CTL activity (%)), the inhibition at 10 µM worked out at 80%. Besides, the inhibition at 1 µM in data set [1] (Mus musculus, T-lymphocyte, Table I, 1 × 10^-6 molar, vs vehicle control, read-out: Inhibition of CTL activity (%)) is 63%. For the same molecule, the inhibition at 0.1 µM in data set [1] (Mus musculus, T-lymphocyte, Table I, 1 × 10^-7 molar, vs vehicle control, read-out: Inhibition of CTL activity (%)) was 37%. Further, in data set [1] (Mus musculus, T-lymphocyte, Table I, 1 × 10^-8 molar, vs vehicle control, read-out: Inhibition of CTL activity (%)), the inhibition at 0.01 µM was 9%. Moreover, the inhibition at 0.001 µM in data set [1] (Mus musculus, T-lymphocyte, Table I, 1 × 10^-9 molar, vs vehicle control, read-out: Inhibition of CTL activity (%)) worked out at 3%. In addition, in data set [1] (Mus musculus, T-lymphocyte, Table I, 1 × 10^-10 molar, vs vehicle control, read-out: Inhibition of CTL activity (%)), the inhibition at 0.0001 µM turned out to be 7%. In addition, the “CTL activity (% specific ^51 Cr release)” value worked out at 11 % specific ^51 Cr release in data set [1] (Table I, 1 × 10^-5 molar); 20 % specific ^51 Cr release in data set [1] (Table I, 1 × 10^-6 molar); 34 % specific ^51 Cr release in data set [1] (Table I, 1 × 10^-7 molar); 49 % specific ^51 Cr release in data set [1] (Table I, 1 × 10^-8 molar); 52 % specific ^51 Cr release in data set [1] (Table I, 1 × 10^-9 molar); 50 % specific ^51 Cr release in data set [1] (Table I, 1 × 10^-10 molar). Besides, the “suppression of murine cytotoxic T-lymphocyte responses (in words)” value in data set [1] (in vitro) was “suppress murine cytotoxic T-lymphocyte responses”.
For `C=C1/C(=C\C=C2/CCC[C@]3(C)[C@@H]([C@H](C)C=CCC(O)(C(F)(F)F)C(F)(F)F)CC[C@@H]23)C[C@@H](O)C[C@@H]1O` [26,26,26,27,27,27-Hexafluoro-1α,25-dihydroxy-Δ^22-cholecalciferol], in data set [2] (setting [3]), the inhibition at 1 µM is 80% and the “CTL activity (% specific ^51 Cr release)” value came to 13 ± 0.1 % specific ^51 Cr release. Besides, in data set [2] (setting [4]), the inhibition at 0.1 µM was 64% and the “CTL activity (% specific ^51 Cr release)” value is on record as 23 ± 2 % specific ^51 Cr release.
In the case of `C=C1/C(=C\C=C2/CCC[C@]3(C)[C@@H]([C@H](C)CCCC(O)(C(F)(F)F)C(F)(F)F)CC[C@@H]23)C[C@@H](O)C[C@@H]1O` [26,26,26,27,27,27-hexafluoro-1α,25-dihydroxycholecalciferol], the inhibition at 0.1 µM in data set [2] was found to be 64%. The inhibition at 1 µM in data set [2] was 77%. Moreover, the “CTL activity (% specific ^51 Cr release)” value in data set [2] (setting [3]) worked out at 15 ± 2 % specific ^51 Cr release; in data set [2] (setting [4]) it was 23 ± 3 % specific ^51 Cr release.
